Reference: patent US20240238274A1, “INHIBITORS OF UBIQUITIN SPECIFIC PEPTIDASE 22 (USP22) AND USES THEREOF FOR TREATING DISEASE AND DISORDERS” (Northwestern University, priority 2021, published 2024)

How the values were obtained:
[1] = system: Usp22 and Usp21 expression in iTreg cells; experiment: In vitro iTreg cell TGF-β assay, USP mRNA level; type: cell-based; settings: TGF-β added, inhibitor 25 μg/mL
From the text: FIG. 8: TGF-β induces expression of Usp22 and Usp21 in Treg cells. A, Visual representation of Tumor Conditioned Media (TCM) experiments. B, iTreg USP mRNA level under TGF-β induction post-polarization. Usp22: n=18-19; Usp21: n=7-8; Usp7: 4-5. C, iTreg USP mRNA level under TGF-β with and without a TGF-β inhibitor. Usp22: n=3-11; Usp21: n=8-18; Usp7: 3-8. D, Treg FoxP3 mRNA level with TGF-β induction (n=10). B-D, All mRNA values calculated relative to WT untreated iTreg cells. E, TGF-β level in B16, LLC1 and EG7 tumor conditioned media (n=3). F-H, Correlation between USP induction and TGF-β level in the tumor conditioned media. Usp22: n=3-10; Usp21: n=3-8; Usp7: n=3-6. I, TGF-β mRNA level of control or TGF-β shRNA treated B16 cells (n=3). J, mRNA level of Usp22 in sorted itTreg cells from mice injected with shRNA treated B 16 cells (n=4). B, D, and I, Two-tailed unpaired t-test was performed to determine statistical significance. C and E Ordinary one-way Anova with multiple comparisons between groups was performed to determine statistical significance. All data are presented as mean±stdev. NS, not significant. *P<0.05, **P<0.01, ***P<0.001, ****P<0.0001.
Many types of tumors secrete large amounts of TGF-β, which dampens immune responses and promotes metastasis (21, 22). […]

[2] = system: USP mRNA level in nTreg and iTreg cells; experiment: In vitro inhibitor assays, USP mRNA level in Treg cells; type: cell-based; settings: 24 hours
Experimental: FIG. 3: Usp22 and Usp21 are required for FOXP3 stability in nTreg cells under environmental and metabolic stress found in the TME. All mRNA values calculated relative to unchallenged WT Treg cells. A, nTreg USP mRNA level in normoxic (21% O2) verses hypoxic (1% O2) conditions after 24 hours (n=6-13). B, FOXP3 MFI change in 22KO nTreg cells relative to WT nTreg cells after 72 hours in normoxic (21% O2) verses hypoxic (1% O2) conditions (n=5). C, nTreg USP mRNA level after treatment with dMOG for 24 hours (n=6). D, USP mRNA level in nTreg cells after exposure to glucose-restricted (0.5 mM) conditions after 24 hours relative to normal media (11 mM glucose) (n=7-18). E, Relative FOXP3 MFI change in nTreg cells from control and cells cultured under low glucose conditions after 48 hours (n=3). F, nTreg USP mRNA level under amino acid starvation for 24 hours (n=5-9). […]
Along with the competition for glucose, a scarcity of amino acids within tumors may also alter immune cell function (35). […] So, we treated Treg cells with an inhibitor of mitochondrial ATP synthase, Oligomycin A, and measured USP mRNA levels.
All nTreg and iTreg cells were plated as described above DMOG (Sigma Catalog #D3695) was administered to the cells in relevant experiments at 1 mM for 24 hours. […] FOXP3 protein level was assessed via flow cytometry following 48 hours of treatment of inhibitors described above. […]

CC(C)(O)c1cc(Nc2cc(Oc3cn(C4CC4)nc3C3CCOCC3)ccn2)ccn1 [LY 3200882]
TGF-β-induced increase of Usp22 and Usp21 expression [1]: largely diminished

CC[C@H]1/C=C/C=C/C[C@@H](C)[C@H](O)[C@@](C)(O)C(=O)[C@@H](C)[C@H](O)[C@@H](C)C(=O)[C@@H](C)[C@H](O)[C@@H](C)/C=C/C(=O)O[C@@H]2[C@H](C)[C@H](CC1)O[C@]1(CC[C@H](C)[C@H](C[C@@H](C)O)O1)[C@H]2C [Oligomycin A]
USP mRNA level ([2]; nTreg cells, 1 μM): increased both Usp22 and Usp21, but not Usp7

COC(=O)CNC(=O)C(=O)OC [dMOG, dimethyloxalylglycine]
Usp22 mRNA level ([2]; nTreg and iTreg cells, 1 mM): increased Usp22 mRNA level
